Assay results reported in patent US20170071918A1 (THE UNIVERSITY OF HONG KONG, priority 2015, published 2017).
“And” between values parts separate entries of the source, which are not always exact repeats. Equal entries are not always repeated. Values belong to the molecule of their own block, whether it stands above or below them.

Columns and labels:
[1] = tested on: Bel-7402 cells (mock-treated and sorafenib-resistant); assay: Annexin V staining apoptosis assay, Bel-7402; assay type: cell-based, human
Method: (§1) Cells were stained in binding buffer, proipidium iodide (PI) and FITC-conjugated Annexin V as provided by the Annexin-V-FLUO+S Staining Kit (Roche Diagnostics) according to manufacturer's instructions. Analysis was determined using a Canto II flow cytometer and FACSdiva software (BD Biosciences).

[2] = tested on: Huh-7 cells (mock-treated and sorafenib-resistant); assay: Annexin V staining apoptosis assay, Huh-7; assay type: cell-based, human
Method: as §1

[3] = tested on: NF-κB binding to the CD47 promoter; assay: ChIP-qPCR assay of NF-κB occupancy on the CD47 promoter; assay type: cell-based, human
Method: The cells were processed for ChIP assays according to Upstate CHIP protocol. Briefly, cells were cross-linked for 10 min with 1% formaldehyde and lysed. Lysate pellets were resuspended and sonicated with a Microson sonifier XL-2000 (Misonix) for 10 cycles (ON/OFF 30 seconds; amplitude 10 microns). Protein-DNA complexes were immunoprecipitated using p65 (C-20) antibody (Santa Cruz Technology, Santa Cruz, Calif.) or Normal rabbit IgG (Thermo Fisher Scientific, Rockford, Ill.) bound to protein A agarose, eluted, and digested with proteinase K. For qPCR analysis of the ChIP DNA samples before amplicon generation, QIAquick-purified immunoprecipitates were dissolved in 30 μl of water. Standard PCR reactions using […] of the immunoprecipitated DNA were performed with a SYBR Green PCR kit (Applied Biosystems) using primers which generates a PCR amplicon flanking −564 and -1740 base pairs upstream of the NM 001777 (CD47) transcription start site based on bioinformatics analysis on the Human Genome Build from the UCSC Genome Browser February 2009 (GRCh37/hg19) Assembly. Calculation of NF-κB occupancy on the CD47 promoter was performed according to the ChIP-qPCR primer assay data analysis template from Superarray Bioscience (Frederick, Md.).

[4] = tested on: NF-κB (nuclear p65 (Ser536), cytosolic p-IκBα (Ser32/36)); assay: Western blotting of NF-κB activation; assay type: cell-based, human
Method: upon lysis with Buffer A (0.5 mM DTT, 10 mM HEPES, 10 mM KCl 1.5 mM MgCl2, pH7.9) for 15 minutes on ice and 0.5% NP-40 was added before extraction by centrifugation. The remaining pellet was treated with RIPA buffer (50 mM Tris-HCl pH7.4, 1% NP-40, 0.05% SDS 150 mM NaCl, 1 mM EDTA) for 30 minutes on ice and the nuclear fraction was obtained by centrifugation.
Western blots were developed using an ECL Plus kit (Amersham Biosciences, Piscataway, N.J.). The primary antibodies included mouse anti-human p65 (Ser536), mouse anti-human p-Akt (Ser473), anti-human p-Erk (Thr202/Tyr204), rabbit anti-human Bcl-2, rabbit anti-human cleaved caspase-9, rabbit anti-human cleaved PARP, mouse anti-human p-IκBα (Ser32/36) (Cell Signal Technology) and mouse anti-human α-tubulin, rabbit anti-human Bax, rabbit anti-human SP1 (PEP2) (Santa Cruz Technology, Santa Cruz, Calif.). After washing, the membrane was incubated with horseradish peroxidase-conjugated anti-mouse or rabbit antibody (Amersham) and then visualized with enhanced chemiluminescence plus according to the manufacturer's protocol.

CD47 expression = assay: Flow cytometric analysis of cell-surface CD47; assay type: cell-based, human
Method: Phycoerythrin (PE)-conjugated CD47 (BD PharMingen, San Jose, Calif.), APC-conjugated CD133 (MACS Miltenyi Biotec), FITC-conjugated CD24 (MACS Miltenyi Biotec), FITC-conjugated EPCAM (Becton Dickinson), were incubated in phosphate-buffered saline (PBS) containing 2% fetal bovine serum (FBS) for 30 minutes at 4° C. Isotype-matched mouse immunoglobulins served as controls. The samples were analyzed using a Canto II flow cytometer and FACSdiva software (BD Biosciences, San Jose, Calif.).

NF-κB promoter activity = assay: Luciferase reporter assay, NF-κB promoter; assay type: cell-based, human
Method: (§2) NF-κB promoter plasmid pNF-κB-Luc or CD47 luciferase promoter plasmid were transfected together with pRL-cytomegalovirus as normalization using Lipofectamine 2000 (Thermo Fisher Scientific). Cell were incubated for 48 hours prior to detection by Dual-Luciferase Reporter Assay System Kit (Promega) according to manufacterer's protocol. Gaussia Luciferase Assay Kit (GeneCopoeia) was used for CD47 detection. Samples were detected with Infinite F200 Tecan Multiplate reader (Tecan Austria GmbH).

CD47 promoter activity = assay: Luciferase reporter assay, CD47 promoter; assay type: cell-based, human
Method: as §2

MHCC97L cells = assay: Annexin V staining apoptosis assay, MHCC97L; assay type: cell-based, human; settings: sorafenib 10 μM; MHCC97L shCD47 vs control
Method: as §1

[5] = tested on: mock-treated and sorafenib-resistant HCC cells (Bel-7402 and Huh-7); assay: XTT cell proliferation assay; assay type: cell-based, human; settings: sorafenib 5 to 25 μM, 48 h; mock-treated vs sorafenib-resistant cells
Method: After 48 h, (2,3-Bis-(2-Methoxy-4-Nitro-5-Sulfophenyl)-2H-Tetrazolium-5-Carboxanilide) (XTT) dye, at a concentration of 5 mg/mL (Sigma-Aldrich, St Louis, Mo.), was added and the plates were incubated for 12 h in a moist chamber at 37° C. Optical density was determined by eluting the dye with dimethyl sulfoxide (Sigma-Aldrich) and the absorbance was measured at 570 nm. At least three independent experiments were performed.

PDTX#5 tumor tissues = assay: TUNEL assay of apoptotic nuclei in PDTX#5 tumors; assay type: in vivo, mice; settings: tumors harvested day 31
Method: The TUNEL assay was performed to detect apoptotic cells using in situ cell death detection kit (Roche Diagnostics, Indianapolis, Ind.). Briefly, paraffin-embedded tissues were fixed with 15 μg/mL proteinase K in 10 mM Tris/HCl at pH 7.4. The slides were then incubated with the TUNEL reaction mixture for 1 h at 37° C. After washing, the slides were incubated with a horseradish peroxidase-conjugated anti-fluorescein antibody for 30 min at 37° C. Stained slides were imaged on an Aperio Scanscope® CS imager (Vista, Calif.), generating 0.43 μm/pixel whole slide images. These images were compiled, and number of apoptotic nuclei was quantitated using the Aperio Spectrum® software with a pixel count algorithm.

[6] = tested on: patient-derived HCC tumor xenografts (PDTX#1 and PDTX#5); assay: Sorafenib treatment of PDTX#1 and PDTX#5 xenografts (in vivo selection); settings: sorafenib 100 mg/kg oral for 31 days; NOD-SCID mice
Source text: Using this in vivo treatment, we enriched the proportion of sorafenib-resistant HCC cells in residual tumors.

CD47 (human) = CD47 (human) (UniProt Q08722); assay: cell-based or functional assay
[7] = IMD-0354, Huh-7 and MHCC97L cells
[8] = TNF-α 20 ng/mL, PLC/PRF/5 and Bel-7402 cells
[9] = TNF-α for 1 hour, Bel-7402 and PLC/PRF/5 cells

Molecule: O=C(Nc1cc(C(F)(F)F)cc(C(F)(F)F)c1)c1cc(Cl)ccc1O [IMD-0354]
Toxic effects on cells ([1]; 0.5 μM IMD-0354, Bel-7402): no toxic effects | Sensitization to sorafenib ([1]; 0.5 μM IMD-0354 cotreatment with sorafenib, Bel-7402): sensitized | Annexin V-positive (apoptotic) cells ([1]; sorafenib plus IMD-0354 at 0.5 μM, mock-treated Bel-7402): 30.8% | Annexin V-positive (apoptotic) cells ([1]; sorafenib plus IMD-0354 at 0.5 μM, sorafenib-resistant Bel-7402): 32.9% | Toxic effects on cells ([2]; 0.05 μM IMD-0354, Huh-7): no toxic effects | Sensitization to sorafenib ([2]; 0.05 μM IMD-0354 cotreatment with sorafenib, Huh-7): sensitized | Annexin V-positive (apoptotic) cells ([2]; sorafenib plus IMD-0354, mock-treated Huh-7): 50.2% | Annexin V-positive (apoptotic) cells ([2]; sorafenib plus IMD-0354, sorafenib-resistant Huh-7): 33.9% | Fold enrichment of NF-κB binding relative to background ([3]; Huh-7 cells, site 1, 1 μM IMD-0354 for 24 hours (untreated 1.4-fold)): 1.1 fold | Fold enrichment of NF-κB binding relative to background ([3]; Huh-7 cells, site 2, 1 μM IMD-0354 for 24 hours (untreated 1.8-fold)): 0.9 fold | Fold enrichment of NF-κB binding relative to background ([3]; MHCC97L cells, site 1, 3 μM IMD-0354 for 24 hours (untreated 4.3-fold)): 1.4 fold | Fold enrichment of NF-κB binding relative to background ([3]; MHCC97L cells, site 2, 3 μM IMD-0354 for 24 hours (untreated 2.8-fold)): 1.5 fold | NF-κB activation (phosphorylation of p65 and IκBα) ([4]; IMD-0354 at 1 μM in Huh-7 and 3 μM in MHCC97L cells): effectively suppressed NF-κB activation | Cell-surface expression of CD47 (CD47 expression; IMD-0354, MHCC97L and Huh-7 cells): reduction in cell-surface expression of CD47 | NF-κB promoter activity (NF-κB promoter activity; [7]): significantly down-regulated | CD47 promoter activity (CD47 promoter activity; [7]): significantly down-regulated

Molecule: CNC(=O)c1cc(Oc2ccc(NC(=O)Nc3ccc(Cl)c(C(F)(F)F)c3)cc2)ccn1 [sorafenib]
Annexin V-positive (apoptotic) cells ([1]; sorafenib 15 μM, mock-treated Bel-7402, after CD47 knockdown): 38% | Annexin V-positive (apoptotic) cells ([1]; sorafenib 15 μM, mock-treated Bel-7402, before CD47 knockdown (nontarget control)): 25.2% | Annexin V-positive (apoptotic) cells ([1]; sorafenib 15 μM, sorafenib-resistant Bel-7402, after CD47 knockdown): 37.6% | Annexin V-positive (apoptotic) cells ([1]; sorafenib 15 μM, sorafenib-resistant Bel-7402, before CD47 knockdown (nontarget control)): 19.1% | Annexin V-positive (apoptotic) cells ([1]; sorafenib alone, mock-treated Bel-7402): 29.0% | Annexin V-positive (apoptotic) cells ([1]; sorafenib alone, sorafenib-resistant Bel-7402): 14.9% and 13.2% | Sensitivity of cells to sorafenib after CD47 knockdown ([2]; sorafenib 10 μM, Huh-7 shCD47 vs control): increased the sensitivity of cells to sorafenib | Annexin V-positive (apoptotic) cells ([2]; sorafenib alone, mock-treated Huh-7): 37.7% and 43.0% | Annexin V-positive (apoptotic) cells ([2]; sorafenib alone, sorafenib-resistant Huh-7): 28.4% and 35.1% | Annexin V-positive (apoptotic) cells ([2]; sorafenib, mock-treated Huh-7, after CD47 knockdown): 57.9% | Annexin V-positive (apoptotic) cells ([2]; sorafenib, mock-treated Huh-7, before CD47 knockdown (nontarget control)): 48.8% | Annexin V-positive (apoptotic) cells ([2]; sorafenib, sorafenib-resistant Huh-7, after CD47 knockdown): 56.9% | Annexin V-positive (apoptotic) cells ([2]; sorafenib, sorafenib-resistant Huh-7, before CD47 knockdown (nontarget control)): 38.8% | Sensitivity of cells to sorafenib after CD47 knockdown (MHCC97L cells): increased the sensitivity of cells to sorafenib | Growth-suppressive effect on cell proliferation [5]: significantly greater in mock-treated cells | Percentage of apoptotic nuclei in tumor tissues (TUNEL) (PDTX#5 tumor tissues): higher | Effect on xenograft tumors [6]: tumor inhibition

Fold enrichment of NF-κB binding relative to background ([3]; Bel-7402 cells, site 1, 20 ng/mL TNF-α, 1 hour before fixation (untreated 1.5-fold)): 2.5 fold | Fold enrichment of NF-κB binding relative to background ([3]; Bel-7402 cells, site 2, 20 ng/mL TNF-α, 1 hour before fixation (untreated 1.6-fold)): 2.5 fold | NF-κB promoter activity (NF-κB promoter activity; [9]): increase in NF-κB promoter activity
Molecule: TNF-α
NF-κB activation (nuclear p65 (Ser536) and cytosolic p-IκBα (Ser32/36)) [4, 8]: successfully induced NF-κB activation | CD47 expression on the surface of HCC cells (CD47 expression; [8]): increase in CD47 expression | CD47 promoter activity (CD47 promoter activity; [9]): corresponding increase in CD47 promoter activity

sorafenib sensitivity, mock-treated Bel-7402 cells, without to with anti-CD47 antibody at 2 µg/mL (CD47 (human)): 29 to 37.6% | sorafenib sensitivity, mock-treated Huh-7 cells, without to with anti-CD47 antibody at 2 µg/mL (CD47 (human)): 43 to 48.5% | sorafenib sensitivity, sorafenib-resistant Bel-7402 cells, without to with anti-CD47 antibody at 2 µg/mL (CD47 (human)): 13.2 to 38.4% | sorafenib sensitivity, sorafenib-resistant Huh-7 cells, without to with anti-CD47 antibody at 2 µg/mL (CD47 (human)): 35.1 to 39.3%
B1: Monoclonal antibody against CD47 (B6H12) (antibody, from another filing, V domains shown)
VH: EVQLVESGGDLVKPGGSLKLSCAASGFTFSGYGMSWVRQTPDKRLEWVATITSGGTYTYYPDSVKGRFTISRDNAKNTLYLQIDSLKSEDTAIYFCARSLAGNAMDYWGQGTSVTVSS
VL: DIVMTQSPATLSVTPGDRVSLSCRASQTISDYLHWYQQKSHESPRLLIKFASQSISGIPSRFSGSGSGSDFTLSINSVEPEDVGVYYCQNGHGFPRTFGGGTKLEIK
